From US5905068A, “Retroviral protease inhibiting compounds” (Abbott Laboratories, priority 1996, dated 1999) come the findings set out here.

Some results are limits rather than exact numbers.

Data set [1] relates to HIVIIIB. The data set is described as follows: Antiviral Activity: anti-HIV activity in MT4 cells infected with HIVIIIB (MTT). The data set is classed as cell-based. The note with it: Human immunodeficiency virus 1, 120 h, MOI 0.003, 5 days, n=four duplicate determinations. The protocol:
(§1) The anti-HIV activity of the compound of the invention was determined in MF4 cells according to the following procedure: MT4 cells were infected with cell-free supernatant of HIVIIIB (previously frozen with known 50% tissue culture infectious dose (TCID50) at 0.003 multiplicity of infection (MOI)) for one hour. After one hour infection, cells were washed twice to remove residual viruses, resuspended in culture media and seeded into 96-well tissue culture plates at 1×10^4 cells per well with various half-log dilutions of compounds. Uninfected cells were included a toxicity and cell controls. RPMI 1640 media (GIBCO) with 10% fetal bovine serum was used as culture media. Various concentrations (50%, 25% and 12.5%) of human serum (SIGMA) were added to culture media resulting in final concentrations of 60%, 35% and 22.5% total serum. All assay plates were incubated in a 37° C. incubator for 5 days. The compound 3-[4,5-dimethylthiozol-2-yl]-2,5-diphenyltetrazolium bromide (MTT, SIGMA, 5 mg .mL stock in PBS) was then added to all wells at 25 μL per well and incubated for 4 hours. SDS (20%) with 0.02N HCl in water was added at 50 μL per well to lyse cells. Plates were incubated overnight for complete cell lysis and then read on a microtiter plate reader at 570/650 nm wavelengths to determine cell optical density (O.D.). Raw data was analysed for percent inhibition by the following formula: [formula]
The 50% effective concentration (EC50) was calculated by the median effect equation (Chou, 1975, Proc. Int. Cong. Pharmacol. 6th p. 619) to determine the efficacy of compound. The 50% cytotoxicity concentration (CTC50) was calculated using uninfected MT4 cells
Under these conditions, the data of Table 2 was obtained (n=four duplicate determinations).

Data set [2] in a line: Cytotoxicity in uninfected MT4 cells (MTT). Type of data set: cell-based. The note with it: human, 5 days, n=four duplicate determinations, read-out: CTC50 (50% cytotoxicity concentration). The protocol:
as §1, with “RPMI 1640 media (GIBCO) with 10% fetal bovine serum was used as culture media. Various concentrations (50%, 25% and 12.5%) of human serum (SIGMA) were added to culture media resulting in final concentrations of 60%, 35% and 22.5% total serum.” left out, “The compound 3-[4,5-dimethylthiozol-2-yl]-2,5-diphenyltetrazolium bromide (MTT, SIGMA, 5 mg .mL stock in PBS) was then added to all wells at 25 μL per well and incubated for 4 hours.” left out
The 50% cytotoxicity concentration (CTC50) was calculated using uninfected MT4 cells

For data set [3], the target named is HIV-1 protease (Human immunodeficiency virus type 1 group M subtype B, UniProt P04585). The data set can be described thus: Fluorogenic Assay for Screening Inhibitors of HIV Protease. The note with it: pH 4.5.
Description: The inhibitory potency of the compounds of the invention were determined by the following method: The compound of the invention was dissolved in DMSO and a small aliquot further diluted with DMSO to 100 times the final concentration desired for testing. The reaction was carried out in a 6×50 mm tube in a total volume of 300 microliters. […] After addition of inhibitor, the reaction mixture was placed in the fluorometer cell holder and incubated at 30° C. for several minutes. The reaction was initiated by the addition of a small aliquot of cold HIV protease. The fluorescence intensity (excitation 340 nm, emission 490 nm) was recorded as a function of time. The reaction rate was determined for the first six to eight minutes. The observed rate was directly proportional to the moles of substrate cleaved per unit time. The percent inhibition was calculated according to the equation: 100×(1-(rate of inhibitor)/(rate in absence of inhibitor)). As a control, duplicate reactions were performed identically as above but without the addition of an inhibitor compound.

A word on the EC50: it is the concentration giving half of the maximal effect. A high value points to a less potent agent. A word on the inhibition: it is the share of the control response that was lost under treatment.

In data set [1], `O=C(N[C@@H](Cc1ccccc1)C[C@H](O)[C@H](Cc1ccccc1)NC(=O)O[C@@H]1CO[C@@H]2OCC[C@@H]21)O[C@H]1CO[C@H]2OCC[C@H]21` [Example 23, (2S,3S,5S)-2-((3S,3aR,6aS)-bis-tetrahydrofuran-3-yl-oxycarbonyl)amino-5-((3R,3aS,6aR)-bis-tetrahydrofuran-3-yl-oxycarbonyl)amino-1,6-diphenyl-3-hydroxyhexane] came in with an EC50 of 891 nM. Moreover, the CC50 at 120 h in data set [2] is over 100000 nM. The inhibition at 0.0005 µM in data set [3] was determined as 39%.
In turn, `O=C(N[C@@H](Cc1ccccc1)[C@@H](O)C[C@H](Cc1ccccc1)NC(=O)O[C@@H]1CO[C@@H]2OCC[C@@H]21)OCc1cncs1` [Example 38, (2S,3S,5S)-2-((5-Thiazolyl)methoxycarbonyl)amino-5-((3S,3aR,6aS)-bis-tetrahydrofuran-3-yl-oxycarbonyl)amino-1,6-diphenyl-3-hydroxyhexane] showed an EC50 in data set [1] of 140 nM. In addition, the CC50 at 120 h in data set [2] is over 100000 nM. In data set [3], the inhibition at 0.0005 µM was determined as 53%.
Compound `CC(C)[C@@H](NC(=O)N(C)Cc1cncs1)C(=O)N[C@@H](Cc1ccccc1)C[C@H](O)[C@H](Cc1ccccc1)NC(=O)O[C@H]1CO[C@H]2OCC[C@H]21` [Example 44, (2S,3S,5S)-5-(N-(N-((N-Methyl-N-((5-thiazolyl)methyl)amino)carbonyl)-D-valinyl)amino)-2-((3R,3aS,6aR)-bis-tetrahydrofuran-3-yl-oxycarbonyl)amino-1,6-diphenyl-3-hydroxyhexane] had an EC50 in data set [1] of 370 nM. For the same compound, in data set [2], the CC50 at 120 h is over 100000 nM. Moreover, testing at 0.0005 µM in data set [3] gave an inhibition of 72%.
Regarding `O=C(N[C@@H](Cc1ccccc1)[C@@H](O)C[C@H](Cc1ccccc1)NC(=O)c1ccc(O)cc1)O[C@@H]1CO[C@@H]2OCC[C@@H]21` [Example 53, (2S,3S,5S)-5-(4-Hydroxy-benzoyl)amino-2-((3S,3aR,6aS)-bis-tetrahydrofuran-3-yl-oxycarbonyl)amino-1,6-diphenyl-3-hydroxyhexane], a half-maximal effect in data set [1] (EC50) was put at 704 nM. In addition, the CC50 at 120 h in data set [2] is over 100000 nM. In data set [3], this compound returned an inhibition at 0.001 µM of 56%.
`Cc1cc(N)cc(C)c1OCC(=O)N[C@@H](Cc1ccccc1)C[C@H](O)[C@H](Cc1ccccc1)NC(=O)O[C@H]1CO[C@H]2OCC[C@H]21` [Example 1, (2S,3S,5S)-5-(2,6-Dimethyl-4-amino-phenoxyacetyl)amino-2-((3R,3aS,6aR)-bis-tetrahydrofuran-3-yl-oxycarbonyl)amino-1,6-diphenyl-3-hydroxyhexane] returned a half-maximal effective concentration (EC50) in data set [1] of 9 nM. The CC50 at 120 h in data set [2] worked out at 95000 nM. Further, at 0.0005 µM the inhibition in data set [3] was 78%.
The compound `COc1cccc(C)c1OCC(=O)N[C@@H](Cc1ccccc1)C[C@H](O)[C@H](Cc1ccccc1)NC(=O)O[C@H]1CO[C@H]2OCC[C@H]21` [Example 12, (2S,3S,5S)-5-(2-Methoxy-6-methylphenoxyacetyl)amino-2-((3R,3aS,6aR)-bis-tetrahydrofuran-3-yl-oxycarbonyl)amino-1,6-diphenyl-3-hydroxyhexane] came in with a half-maximal effective concentration (EC50) in data set [1] of 353 nM. For the same compound, in data set [2], the CC50 at 120 h was over 32000 nM. The compound also had an inhibition at 0.0005 µM in data set [3] of 74%.
Take `Cc1cccc(C)c1OCC(=O)N[C@@H](Cc1ccccc1)[C@@H](O)C[C@H](Cc1ccccc1)NC(=O)OC1CCCSC1` (mixture of isomers) [Example 31, (2S,3S,5S)-2-(2,6-Dimethylphenoxyacetyl)amino-5-(3(R,S)-tetrahydrothiopyranyloxycarbonyl)amino-1,6-diphenyl-3-hydroxyhexane]: the half-maximal effective concentration (EC50) in data set [1] turned out to be 1100 nM. For the same compound, the CC50 at 120 h in data set [2] came out at 53300 nM. Further, in data set [3], testing at 0.0005 µM gave an inhibition of 52%.
The compound `O=C(N[C@@H](Cc1ccccc1)C[C@H](O)[C@H](Cc1ccccc1)NC(=O)c1ccccc1)O[C@H]1CO[C@H]2OCC[C@H]21` [Example 68, (2S,3S,5S)-2-(Benzoyl)amino-5-((3R,3aS,6aR)-bis-tetrahydrofuran-3-yl-oxycarbonyl)amino-1,6-diphenyl-3-hydroxyhexane] showed a 50% effective concentration (EC50) in data set [1] of 233 nM. The CC50 at 120 h in data set [2] is over 32000 nM. The same compound gave an inhibition at 0.0005 µM in data set [3] of 65%.
As to `Cc1cc(F)cc(C)c1OCC(=O)N[C@@H](Cc1ccccc1)C[C@H](O)[C@H](Cc1ccccc1)NC(=O)O[C@H]1CO[C@H]2OCC[C@H]21` [Example 14, (2S,3S,5S)-5-(2,6-Dimethyl-4-fluoro-phenoxyacetyl)amino-2-((3R,3aS,6aR)-bis-tetrahydrofuran-3-yl-oxycarbonyl)amino-1,6-diphenyl-3-hydroxyhexane], the EC50 in data set [1] is 268 nM. Moreover, in data set [2], the CC50 at 120 h is 64000 nM. In data set [3], this compound came in with an inhibition at 0.0005 µM of 69%.
Consider `CC(C)[C@H](NC(=O)N(C)Cc1cncs1)C(=O)N[C@@H](Cc1ccccc1)C[C@H](O)[C@H](Cc1ccccc1)NC(=O)O[C@H]1CO[C@H]2OCC[C@H]21` [Example 45, (2S,3S,5S)-5-(N-(N-((N-Methyl-N-((5-thiazolyl)methyl)amino)carbonyl)-L-valinyl)amino)-2-((3R,3aS,6aR)-bis-tetrahydrofuran-3-yl-oxycarbonyl)amino-1,6-diphenyl-3-hydroxyhexane], for which a half-maximal response in data set [1] (EC50) required 450 nM. In addition, the CC50 at 120 h in data set [2] is over 100000 nM. The compound further showed an inhibition at 0.0005 µM in data set [3] of 56%.
For the compound `Cc1cc(N)cc(C)c1SCC(=O)N[C@@H](Cc1ccccc1)C[C@H](O)[C@H](Cc1ccccc1)NC(=O)O[C@H]1CO[C@H]2OCC[C@H]21` [Example 17, 5-(2,6-Dimethyl-4-amino-phenylthioacetyl)amino-2-((3R,3aS,6aR)-bis-tetrahydrofuran-3-yl-oxycarbonyl)amino-1,6-diphenyl-3-hydroxybexane], the EC50 in data set [1] was determined as 5790 nM. Also, the CC50 at 120 h in data set [2] was found to be 56000 nM. The compound further came in with an inhibition at 0.001 µM in data set [3] of 50%.
Compound `CC(C)c1nc(CN(C)C(=O)N[C@H](C(=O)N[C@@H](Cc2ccccc2)[C@@H](O)C[C@H](Cc2ccccc2)NC(=O)O[C@H]2CO[C@H]3OCC[C@H]32)C(C)C)cs1` [Example 46, (2S,3S,5S)-2-(N-(N-((N-Methyl-N-((2-isopropyl-4-thiazolyl)methyl)amino)carbonyl)-L-valinyl)amino)-5-((3R,3aS,6aR)-bis-tetrahydrofuran-3-yl-oxycarbonyl)amino-1,6-diphenyl-3-hydroxyhexane] had an EC50 in data set [1] of 34 nM. Also, the CC50 at 120 h in data set [2] amounted to 56200 nM. This compound also gave an inhibition at 0.0005 µM in data set [3] of 74%.
Turning to `CC(C)[C@@H](NC(=O)OCc1cncs1)C(=O)N[C@@H](Cc1ccccc1)C[C@H](O)[C@H](Cc1ccccc1)NC(=O)O[C@H]1CO[C@H]2OCC[C@H]21` [Example 43, (2S,3S,5S)-5-(N-(N-((5-Thiazolyl)methoxycarbonyl)-D-valinyl)amino)-2-((3R,3aS,6aR)-bis-tetrahydrofuran-3-yl-oxycarbonyl)amino-1,6-diphenyl-3-hydroxyhexane], the EC50 in data set [1] came to 270 nM. Moreover, the CC50 at 120 h in data set [2] was over 100000 nM. In data set [3], this compound returned an inhibition at 0.0005 µM of 42%.
As for `Cc1cccc(C)c1OCC(=O)N[C@@H](Cc1ccccc1)[C@@H](O)C[C@H](Cc1ccccc1)NC(=O)O[C@H]1CO[C@H]2OCC[C@H]21` [Example 6, (2S,3S,5S)-2-(2,6-Dimethyl-phenoxyacetyl)amino-5-((3R,3aS,6aR)-bis-tetrahydrofuran-3-yl-oxycarbonyl)amino-1,6-diphenyl-3-hydroxyhexane], in data set [1], the midpoint of the response, the EC50, lay at 61 nM. For the same compound, in data set [2], the CC50 at 120 h is over 100000 nM. In data set [3], this compound showed an inhibition at 0.0005 µM of 91%.
`Nc1ccc(Cl)c(C(=O)N[C@@H](Cc2ccccc2)[C@@H](O)C[C@H](Cc2ccccc2)NC(=O)O[C@H]2CO[C@H]3OCC[C@H]32)c1` [Example 62, (2S,3S,5S)-2-(3-Amino-6-chloro-benzoyl)amino-5-((3R,3aS,6aR)-bis-tetrahydrofuran-3-yl-oxycarbonyl)amino-1,6-diphenyl-3-hydroxyhexane] gave an EC50 in data set [1] of 81 nM. Also, in data set [2], the CC50 at 120 h is over 100000 nM. In data set [3], the inhibition at 0.0005 µM is 70%.
With `O=C(N[C@@H](Cc1ccccc1)[C@@H](O)C[C@H](Cc1ccccc1)NC(=O)c1ccc(O)cc1)O[C@H]1CO[C@H]2OCC[C@H]21` [Example 55, (2S,3S,5S)-5-(4-Hydroxy-benzoyl)amino-2-((3R,3aS,6aR)-bis-tetrahydrofuran-3-yl-oxycarbonyl)amino-1,6-diphenyl-3-hydroxyhexane], in data set [1], it took 11 nM to reach a half-maximal effect (EC50). The CC50 at 120 h in data set [2] was 49500 nM. In addition, the inhibition at 0.0005 µM in data set [3] is 82%.
